Laboratory results from patent US10703698B2, “Compounds which activate estrogen receptors and compositions and methods of using the same” (The Board of Trustees of the University of Illinois, priority 2016, dated 2020).
Entries after “also recorded” stand apart in the source; their conditions may differ. Each block holds one compound with its values, some of them ahead of it.

Tests used:
MCF-7 cells [1] = experiment: RNA-Seq of MCF-7 cells treated with OA with and without PaPE-1; type: cell-based, human; settings: 100 nM OA, 24 h
Method: FIG. 38. Identification of genes induced by OA and PaPE-1's effect on the gene regulation. (A) RNA-Seq analysis of gene expression changes induced by OA and OA+PaPE1. Heat map of the genes with significant changed expression. MCF-7 cells were treated with Veh or 100 nM OA with and without 1 μM PaPE-1 for 24 h. RNA was isolated and RNA-Seq was performed using 2 samples from each treatment group. Differentially regulated genes were determined with p<0.05 and expression fold change >2. (B) Clusters from A. regulated by OA and reversed by PaPE-1. The average gene expression level of the cluster1 (C1) and 2 (C2) identified as PaPE-1 regulated high-fat genes. In C1, there are 425 genes whose expression were found stimulated in OA but not in the OA+PaPE-1 treatment. In C2, there are 646 genes whose expression were found suppressed in the OA but restored by OA+PaPE-1 treatment. (C) Venn diagram analysis. […] (D) Examples of OA-regulated genes. Some of the top functions of the involved genes are presented.

[2] = test system: ERα recruitment to chromatin; experiment: ERα ChIP-Seq of MCF-7 cells treated with OA with or without PaPE-1; type: cell-based, human; settings: 100 nM OA, 45 minutes
Method: FIG. 39. ERα chromatin binding sites induced by OA and the effect of PaPE-1 in reversing these changes in the ERα cistrome. (A) Recruitment of ERα to chromatin in the presence of PaPE-1, OA and OA+PaPE-1. MCF-7 cells were treated with Veh and 100 nM OA with or without 1 μM PaPE-1 for 45 minutes. ERα-DNA complexes were pulled down using ERα antibodies. Three biological replicates were pooled and sequenced. Clustering of ERα binding sites in treatments of Veh (0.1% EtOH), PaPE-1 (1 μM), OA (100 nM), and OA (100 nM)+PaPE-1 (1 t.M) was done using seqMINER software. (B) Validation of effect of OA and PaPE-1 on the ERα binding at regulatory region of PgR, CISH and SREBP1C using ChIP-qPCR. MCF-7 cells were treated with Veh and 100 nM OA with or without 1 μM PaPE-1 for 45 minutes. ERα-DNA complexes were pulled down using ERα antibodies. Recruitment of ERα to PgR (chr11:100,904,522-100,905,458), CISH (chr3:50,642,336-50,643,191) and SREBP1 (chr17:17,743,329-17,743,912) sites were quantified by Q-PCR. The experiment was repeated 3 times with at least duplicates each time. Mean±SEM is plotted. […] Mean±SEM is plotted. (C) Binding sites whose ERα occupation increased upon OA treatment (cluster marked by * in B). The ERα binding sites were separated into four clusters of characteristic patterns: C1, C2, C3 and C4. […]

MCF-7 cells [3] = experiment: oleic acid (OA)-induced MCF-7 cell proliferation, WST1; settings: for OA-induced MCF-7 cell proliferation with added agent: 100 nM OA, agent 1 μM, 6 days
mTOR pathway = experiment: OA-induced mTOR pathway activation in MCF-7 cells, western blot; settings: 100 nM OA, time course
MCF-7 cells [4] = experiment: RNA-Seq transcriptional profiling of MCF-7 cells; type: cell-based, human; settings: for number of genes regulated: 10 nM E2 or 1 μM PaPE-1
Method: For gene expression analysis, total RNA was extracted from 3 biological replicates for each ligand treatment using Trizol reagent and further cleaned using the RNAeasy kit (QIAGEN). […] Once the sample quality and replicate reproducibility were verified, 2 samples from each group were subjected to sequencing. RNA at a concentration of 100 ng/μL in nuclease-free water was used for library construction. cDNA libraries were prepared with the mRNA-TruSeq Kit (Illumina, Inc.). Briefly, the poly-A containing mRNA was purified from total RNA, RNA was fragmented, double-stranded cDNA was generated from fragmented RNA, and adapters were ligated to the ends.
The paired-end read data from the HiSeq 2000 were processed and analyzed through a series of steps. Base calling and de-multiplexing of samples within each lane were done with Casava 1.8.2. FASTQ files were trimmed using FASTQ Trimmer (version 1.0.0). TopHat2 (version 0.5) was employed to map paired RNA-Seq reads to version hg19 of the Homo sapiens reference genome in the UCSC genome browser in conjunction with the RefSeq genome reference annotation. Gene expression values (raw read counts) from BAM files were calculated using StrandNGS (version 2.1) Quantification tool. Partial reads were considered and option of detecting novel genes and exons was selected. Default parameters for finding novel exons and genes were specified. DESeq normalization algorithm using default values was selected. Differentially expressed genes were then determined by fold-change and p-value with Benjamini and Hochberg multiple test correction for each gene for each treatment relative to the vehicle control. Genes with fold-change >2 and p-value <0.05 were considered as statistically significant, differentially expressed. All RNA-Seq datasets have been deposited with the NCBI under GEO accession number GSE73663.

ovariectomized mice = experiment: carotid artery reendothelialization after perivascular electric injury; type: in vivo
Method: Carotid artery reendothelialization was studied following perivascular electric injury in mice by assessing Evans blue dye uptake 72 h after injury. Endothelial denudation and recovery after injury in this model have been confirmed by immunohistochemistry for von Willebrand Factor. […] Carotid artery denudation was performed 21d later. In select studies additional treatments included subcutaneous injections of vehicle or ICI 182,780 (360 μg/mouse) administered 3d prior to carotid injury and on the day of injury. At the end of the study, uteri were also harvested and weighed.

[5] = test system: ovariectomized C57BL/6 mice; experiment: ovariectomized mice: uterus, thymus and mammary gland effects
[6] = test system: ovariectomized C57BL/6 mice; experiment: stroke model, transient middle cerebral artery occlusion (tMCAo)
eNOS = eNOS activation in primary endothelial cells (14C-L-arginine to 14C-L-citrulline); type: cell-based, bovine; settings: 1 μM ICI 182,780; listed as ICI
LRRC54 gene = experiment: LRRC54 (non-genomic gene) mRNA expression, qPCR; settings: MCF-7 cells, 1 μM ICI pretreatment, 1 μM PaPE-1
MCF-7 cells [7] = experiment: MCF-7 proliferation in serum from obese individuals or standard culture; settings: 1 μM, six days
ERα-SRC3 interaction = experiment: tr-FRET assay of SRC3 coactivator binding to ERα; type: biochemical; settings: 10 nM E2-ERα complex
Description: Using a time-resolved Forster resonance energy transfer (tr-FRET) assay, the binding of the steroid receptor coactivator 3 (SRC3) to ERu was monitored.

PgR gene = experiment: PgR (genomic gene) mRNA expression, qPCR; settings: MCF-7 cells; 1 μM PaPE or 10 nM E2 for 4 h where stated; versus vehicle or E2
LRRC54 gene vs PgR gene = experiment: preferential activation of non-genomic (LRRC54) over genomic (PgR) gene; settings: relative to activation by E2

Structure (SMILES): CCCCCCCC/C=C\CCCCCCCC(=O)O [OA, oleic acid]
genes downregulated by OA (MCF-7 cells [1]): about 500 genes
genes upregulated by OA (MCF-7 cells [1]): about 350 genes
ERα recruitment to chromatin upon OA [2]: recruited to novel chromatin sites upon OA treatment
MCF-7 cell proliferation with free fatty acid (MCF-7 cells [3]; 1 and 100 nM): very efficient in increasing cell proliferation in MCF-7 cells
mTOR pathway activation by OA (mTOR pathway): robust activation of mTOR pathway downstream targets Akt, S6 and 4EBP1

mammary gland ductal morphology ([5]; 3 weeks): elicited marked ductal growth
uterine wet weight ([6]; compared with vehicle): caused an increase in uterine wet weight
Structure (SMILES): C[C@]12CC[C@@H]3c4ccc(O)cc4CC[C@H]3[C@@H]1CC[C@@H]2O [Compound E2, estradiol, reference compound]
regulated genes blocked by MAPK inhibitor AZD6244 (MCF-7 cells [4]; 1 μM AZD6244, 4 h): 23%
regulated genes blocked by mTOR pathway inhibitor PP242 (MCF-7 cells [4]; 1 μM PP242, 4 h): 40%
number of genes regulated (MCF-7 cells [4]; 4 h): ~1500 genes
number of genes regulated (MCF-7 cells [4]; 24 h): about 3000 genes
uterine weight in reendothelialization study (ovariectomized mice; mouse, in vivo): greatly elevated; also recorded: increases uterine weight
uterine weight ([5]; E2 5 μg/day, PaPE up to 300 μg/day): very effective in increasing growth of the uterus; also recorded: markedly increased
reduction of leukocytes infiltrated in the brain ([6]; 3 days post-stroke): 63%

Structure (SMILES): C[C@]12CC[C@@H]3c4ccc(O)cc4C[C@@H](CCCCCCCCC[S+]([O-])CCCC(F)(F)C(F)(F)F)[C@H]3[C@@H]1CC[C@@H]2O (stereo partly shown) [ICI 182,780, Fulvestrant]
endothelial repair responses elicited by E2 and PaPE-1 with antiestrogen (ovariectomized mice; ICI 182,780 360 μg/mouse): fully prevented
uterine stimulation by E2 with antiestrogen (ovariectomized mice; mouse, in vivo): blocked uterine stimulation by E2
eNOS / NOS stimulation by E2 and PaPEs with antiestrogen (eNOS): fully attenuated; also recorded: fully blocked
activation of LRRC54 gene expression by PaPE-1 in presence of antiestrogen (LRRC54 gene): blocked
OA-induced MCF-7 cell proliferation with added agent (MCF-7 cells [3]): blocked OA-induced cell proliferation; also recorded: suppressed
inhibition of MCF-7 proliferation in normal cell culture conditions (MCF-7 cells [7]): better agents

Structure (SMILES): CC/C(=C(\c1ccc(O)cc1)c1ccc(OCCN(C)C)cc1)c1ccccc1 [OH-Tam, trans-hydroxytamoxifen, reference compound]
reversal of the E2-promoted ER-SRC3 interaction (ERα-SRC3 interaction): reversed the ER-SRC3 interaction promoted by E2
PgR (genomic gene) mRNA expression, in words (PgR gene): slight stimulation of the PgR gene
OA-induced MCF-7 cell proliferation with added agent (MCF-7 cells [3]; listed as 4-OH-Tamoxifen): blocked OA-induced cell proliferation; also recorded: suppressed
preference for activation of the non-genomic pathway (LRRC54 over PgR), in words (LRRC54 gene vs PgR gene): Neither Raloxifene (RAL) nor hydroxytamoxifen (TOT) show selective activation of the non-genomic gene LRRC54
inhibition of MCF-7 proliferation in normal cell culture conditions (MCF-7 cells [7]): better agents
